Common to all, as to assay: inhibition of tumour cell growth, NCI panel, 48 h
Experiment [1] relates to HCT-15 colon.
Experiment [2] relates to M14 melanoma.
In experiment [3] the test system is MALME-3M melanoma.
The subject of experiment [4] is MDA-MB-231 breast.
In experiment [5] the test system is PC-3 prostate.
Experiment [6] concerns SK-MEL-5 melanoma.
The test system of experiment [7] is SW-620 colon.
The test system of experiment [8] is T-47D breast.
The test system of experiment [9] is TK-10 renal.
Experiment [10] relates to UACC-62 melanoma.

The structures appear in SMILES notation.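 Five compound concentrations were applied to cells in 96-well plates for 48 hours; endpoints were derived by simple linear interpolation of the resulting dose-response curve. Abbreviation: GI50, concentration required for 50% inhibition of growth. The concentration for full growth arrest is given as TGI.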

As to `Cn1cc(C2=C(c3c4n(c5ccccc35)CCC(CN)CC4)C(=O)NC2=O)c2ccccc21` (stereo not given), the GI50 in experiment [1] was 4.82 µM; in experiment [2], 4.29 µM; in experiment [3] it was 3.8 µM; in experiment [4] it was 3.25 µM; in [5] it was 3.39 µM; in experiment [6] it was 3.99 µM. The GI50 in experiment [7] was 3.87 µM; in [8], 4.52 µM; in experiment [9] it was 3.31 µM; in experiment [10], 3.65 µM. The TGI amounted to 9.93 µM in experiment [1]; 8.26 µM in experiment [2]; 7.88 µM in experiment [3]; 7.13 µM in [4]; 7.95 µM in experiment [5]; 7.59 µM in [6]. Besides, the TGI in experiment [7] amounted to 7.9 µM; in experiment [8] it was 9.87 µM; in experiment [9] it was 6.95 µM; in experiment [10] it was 7.28 µM.

Consider `Cc1cccc(N=C2c3cc([N+](=O)[O-])ccc3-c3c2cc([N+](=O)[O-])cc3[N+](=O)[O-])c1`, for which the GI50 in experiment [1] was 2.8 µM; in experiment [2], 2.2 µM; in [3] it was 4.82 µM; in [4] it was 2.43 µM; in experiment [5], 5.02 µM; in experiment [6], 5.44 µM. Moreover, the GI50 in [7] is 2.01 µM; in experiment [8] it was 1.99 µM; in experiment [9], 12.9 µM; in experiment [10], 5.03 µM. In addition, the TGI in experiment [1] was 10.7 µM; in experiment [2], 4.57 µM; in experiment [3] it was 21.2 µM; in [4] it was 5 µM; in [5], 21.6 µM; in experiment [6] it was 17.9 µM. Also, the TGI in experiment [7] was 3.76 µM; in [8] it was 4.78 µM; in experiment [9] it was > 100 µM; in experiment [10], 20.2 µM.

Take `CN(C)CC1CCn2c(c(C3=C(c4cn(C)c5ccccc45)C(=O)NC3=O)c3ccccc32)C1` (stereo not given): the GI50 was 4.1 µM in experiment [1]; 4.11 µM in experiment [2]; 3.59 µM in experiment [3]; 3.42 µM in [4]; 3.71 µM in experiment [5]; 3.9 µM in [6]. In addition, the GI50 was 4.16 µM in experiment [7], 5.1 µM in experiment [8], 3.03 µM in experiment [9] and 3.91 µM in experiment [10]. Moreover, the TGI in [1] stood at 10.1 µM; in [2], 8.04 µM; in experiment [3] it was 7.31 µM; in [4], 7.56 µM; in experiment [5], 8.03 µM; in experiment [6], 7.49 µM. Moreover, the TGI in [7] came to 8.32 µM; in experiment [8] it was 10.7 µM; in experiment [9], 7.27 µM; in [10] it was 7.49 µM.

Take `Cc1ccc(S(=O)(=O)n2cc(C(=O)C(=O)Nc3ccncc3)c3ccccc32)cc1`: the GI50 was 0.555 µM in experiment [1]; 0.907 µM in experiment [2]; 43 µM in experiment [3]; 5.92 µM in [4]; 1.6 µM in [5]; 0.785 µM in experiment [6]. The GI50 in [7] was 1.23 µM; in [8] it was 4.93 µM; in experiment [9] it was 16.8 µM; in experiment [10] it was 0.829 µM. The TGI in experiment [1] is > 100 µM; in [2], > 100 µM; in [3], > 100 µM; in experiment [4], > 100 µM; in experiment [5], > 100 µM; in experiment [6], 21.3 µM. The TGI in experiment [7] is > 100 µM; in experiment [8], > 100 µM; in [9], > 100 µM; in experiment [10], > 46.7 µM.

For the compound `COc1cc2c(cc1OC)[C@@]1(C)C(=O)c3cc4c(cc3[C@H]1N(C)C2=O)OCO4`, the GI50 was > 100 µM in experiment [1]; 82.6 µM in [2]; 75.1 µM in experiment [3]; 25 µM in [4]; 75.2 µM in [5]; 45.5 µM in experiment [6]. Besides, the GI50 in experiment [7] is 65.4 µM; in experiment [8], 37.9 µM; in [9], 67.3 µM; in experiment [10], 26 µM. Also, the TGI in experiment [1], in experiment [2], in experiment [3], in experiment [4], in experiment [5] and in experiment [6] was > 100 µM in each case. For the same compound, the TGI in experiment [7], in experiment [8], in [9] and in experiment [10] was > 100 µM in each case.

`COc1ccc(Nc2ccnc(NCCCNc3ccnc4cc(Cl)ccc34)n2)cc1`: the GI50 was 0.397 µM in experiment [1]; 0.196 µM in [2]; 1.36 µM in experiment [3]; 0.583 µM in experiment [4]; 1.63 µM in [5]; 0.387 µM in experiment [6]. The GI50 is 1.07 µM in [7], 1.55 µM in experiment [8], 1.54 µM in experiment [9] and 1.4 µM in experiment [10]. Also, the TGI in [1] amounted to 1.76 µM; in [2] it was 0.461 µM; in experiment [3] it was 3.08 µM; in experiment [4] it was 2.15 µM; in [5], 11.2 µM; in experiment [6] it was 1.46 µM. Also, the TGI in experiment [7] is 2.56 µM; in [8] it was 3.71 µM; in [9], 3.17 µM; in [10], 2.96 µM.

For the compound `O=C(O)c1cccc(CC(Br)C(=O)O)c1` (stereo not given), the TGI in [1], in [2], in experiment [3], in [4], in experiment [5] and in experiment [6] was > 100 µM in each case. Besides, the TGI in experiment [7], in experiment [8], in experiment [9] and in experiment [10] was > 100 µM throughout.

For `C[C@]12CCC(=O)C=C1CC[C@@H]1[C@@H]2CC[C@]2(C)C(=O)/C(=C/c3cccc(OCCN4CCOCC4)c3)C[C@@H]12`, the GI50 was 5.29 µM in experiment [1]; 8.9 µM in experiment [2]; 14.7 µM in experiment [3]; 11.6 µM in experiment [4]; 3.15 µM in experiment [5]; 4.17 µM in experiment [6]. The GI50 is 8.45 µM in experiment [7], 2.9 µM in experiment [8], 17.7 µM in experiment [9] and 11 µM in experiment [10]. Moreover, the TGI in experiment [1] was 42.1 µM; in experiment [2], 21.5 µM; in experiment [3] it was 36 µM; in experiment [4], 42.3 µM; in [5], 29.2 µM; in experiment [6], 15.7 µM. Besides, the TGI in experiment [7] is 27.7 µM; in experiment [8], > 100 µM; in experiment [9] it was > 100 µM; in experiment [10], 27.5 µM.
